Entries after “also recorded” stand apart in the source; their conditions may differ.
Columns and labels:
[1] = target: T1, hCB2 (Homo sapiens, UniProt P34972); test: [35S]GTPγS binding assay in hCB2-CHO-K1 cell membranes; format: biochemical; details: for Emax: read-out: GTPγS binding Emax; for Functional effect on G-protein signaling (pharmacological category) / Reduced basal signaling: hCB2-expressing CHO cell membranes (PerkinElmer)
T1 construct: purchased PerkinElmer ES111-M400UA; host or cells: CHO-K1 cells stably transfected
Procedure: Figure 2 Affinity and functional effects of novel MRI ligands on CB2 receptor in CHO cell membranes. (a) binding affinities (nM) and Emax (% and nM) of [^35S]-GTPγS binding to CHO membranes (PerkinElmer, Cat. No ES111-M400UA) expressing hCB2. (b) [^35S]-GTPγS binding to membranes as a factor of ligand concentration. Binding of [^35S]-GTPγS was determined as described in “Methods”. Non-specific binding was defined as 0% activity. The assay of GTPγS non-specific binding contains non-radioactive GTPγS.
[^35S] GTPγS binding was assayed as described earlier[65] with slight modifications. Briefly, hCB2-CHO-K1 cell membranes (4 µg) were incubated with 0.05 nM [^35S] GTPγS, and the indicated concentrations of ligands in TEM buffer (50 mM Tris–HCl, 0.2 mM EGTA, and 9 mM MgCl2, pH 7.4) containing 100 µM GDP, 150 mM NaCl, and 0.1% (w/v) bovine serum albumin in a total volume of 1 ml for 60 min at 30 °C.

[2] = system: CB2 receptor; parameters: method as in PMID 30639103, PMID 18931146; details: previously reported; cited from earlier work
[3] = target: cannabinoid receptor CB2 (Homo sapiens, UniProt P34972); test: [35S]GTP nucleotide exchange (GEF) G protein activation assay on CB2 in cell membrane preparations; format: biochemical; parameters: purchased PerkinElmer; Millipore ChemiScreen; Applied Cell Sciences; Signal Screen (Sf9); E. coli BL21 (DE3) and Expi293F membranes were made in house; ES111-M400UA; A318; 6110130; host or cells: CHO, CHO-K1, Sf9, Expi293F, Expi293F GNTI-, E. coli BL21 (DE3); details: for Pharmacological category in GEF assay: ligand 2 μM
From the text: To better understand the reason for these discrepancies, we assessed the activation of CB2 receptor by the in vitro G protein activation assay that measures the rates of nucleotide exchange on the Gα subunit of G protein (GEF assay) as described previously[33],[34]. The assay reports the rates of formation of the complex of [^35S]-GTPγS, a homolog of GTP, with the Gα subunit of G protein. Typical assay conditions require small (nanogram) quantities of the receptor protein either in cell membranes or reconstituted into lipid bilayers. The readout of the assay is the amount of the non-hydrolysable complex of Gα with [^35S]-GTPγS which, under selected experimental conditions, is proportional to the amount of activated receptor in the assay.
Figure 3 GEF of CB2 expressed in: (a) E. coli membranes and (b) CHO membranes (Millipore EMD). 2 μg of total protein per assay. Each point represents an average of four independent measurements (n = 4). Ligands were added at a concentration of 2 μM to ensure saturation of the receptor, and G protein was added as described in “Methods”. The dotted line indicates the rates of activation of G protein in the absence of a ligand. The rates of activation with […] are set to 100%, and rates of activation in the presence of SR-144,528 to 0%.
Figure 4 GEF on CB2 expressed in different cell lines. An amount of 2 μg of membrane protein per assay was used. Each data points represents an average of four independent measurements (n = 4) with error rates indicated by the bars. 100% represents full activation in the presence of 2 μM of CP-55,940, and 0%–with 2 μM SR-144,528.
The subunits of G protein were expressed and purified as described previously. The nucleotide exchange assay was performed as previously described.

[4] = target: T1, hCB2; test: Radioligand ([3H]CP-55,940) displacement binding in hCB2-CHO-K1 cell membranes; details: hCB2-expressing CHO cell membranes (PerkinElmer), [3H]CP-55,940 displacement; read-out: CB2R binding hCB2R-Ki
Procedure: The assay was performed as described previously. […] Plasma membranes were from cultured CHO-K1 cells stably transfected with human CB2R (Perkin Elmer). Two microgram plasma membrane protein was used in a 1 mL reaction mixture. Ki values were derived by computerized curve fitting and using the Cheng-Prusoff equation to account for the affinity of the radioligand, using the GraphPad Prism 8 program (GraphPad Prism Software Inc.).

[5] = system: microglia; parameters: method as in PMID 16343349; details: cited from earlier work
[6] = system: natural killer cells; parameters: method as in PMID 15749836; details: cited from earlier work
[7] = CB2 in CHO membranes (EMD Millipore)
[8] = CB2 in E. coli BL21 (DE3) membranes (untreated)

T1 sequence (P34972 whole entry): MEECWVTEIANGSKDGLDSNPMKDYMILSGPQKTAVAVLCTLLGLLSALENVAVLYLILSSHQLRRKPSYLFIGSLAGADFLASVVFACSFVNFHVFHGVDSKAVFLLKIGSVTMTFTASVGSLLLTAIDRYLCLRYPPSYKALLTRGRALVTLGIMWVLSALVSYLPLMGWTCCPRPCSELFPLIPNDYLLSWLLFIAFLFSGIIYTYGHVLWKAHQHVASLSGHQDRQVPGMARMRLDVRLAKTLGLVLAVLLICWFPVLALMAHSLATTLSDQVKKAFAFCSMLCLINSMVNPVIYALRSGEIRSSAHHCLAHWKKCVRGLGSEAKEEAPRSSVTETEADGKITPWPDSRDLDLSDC
Chain of cannabinoid receptor CB2 (P34972 whole entry): as above

Molecule | Emax [1] | Activity on the CB2 receptor (category) [2] | Ki [4] | EC50 [1] | Functional effect on G-protein signaling (pharmacological category) [1] | Reduced basal signaling [1] | further results
CCCCCCC(C)(C)c1ccc([C@@H]2C[C@H](O)CC[C@H]2CCCO)c(O)c1 [CP55,940, 2-[(1R,2R,5R)-5-Hydroxy-2-(3-hydroxypropyl)cyclohexyl]-5-(2-methyloctan-2-yl)phenol, reference compound] | 275 ± 4% | – | – | – | – | – | –
COCCn1c(C)c(C)s/c1=N\C(=O)C1C(C)(C)C1(C)C [A-836339, 2,2,3,3-tetramethyl-cyclopropanecarboxylic acid [3-(2-methoxy-ethyl)-4,5-dimethyl-3H-thiazol-(2Z)-ylidene]-amide, reference compound] | – | agonist | – | – | – | – | –
methyl-β-cyclodextrin [MβCD, reference compound] | – | – | – | – | – | – | Effect on rates of activation of G protein on CB2 ([3]; Expi293F membranes treated with 20 mM MβCD): decreased by about twofold
CC(=O)OCCn1c(C)c(C)s/c1=N\C(=O)C1C(C)(C)C1(C)C [MRI-2594] | 276 ± 4% | agonist | 0.031 nM | 0.09 nM | full agonism | – | Pharmacological category in GEF assay [3, 7]: (less-strong) agonist; Pharmacological category in GEF assay [3, 8]: full agonist; also recorded: strong agonist
CCCCCc1cc(O)c2c(c1)OC(C)(C)[C@@H]1CCC(C)=C[C@@H]21 [THC, Δ^9-tetrahydrocannabinol] | – | – | – | – | – | – | CB2 activity in suppressing interferon-γ-induced activation of microglia [5]: full CB2 agonist; CB2 activity on 2-AG-induced migration of natural killer cells [6]: no CB2 agonist activity and acted as a CB2 antagonist
CC(=O)OCCn1c(=NC(=O)C2C(C)(C)C2(C)C)sc2cc(OC(F)(F)F)ccc21 [MRI-2659, 2-(2-((2,2,3,3-tetramethylcyclopropane-1-carbonyl)imino)-6-(trifluoromethoxy)benzo[d]thiazol-3(2H)-yl)ethyl acetate] | -55 ± 1% | – | 0.053 ± 0.01 nM | 0.25 ± 0.1 nM | inverse agonism | 55% | Pharmacological category in GEF assay [3, 7]: strong inverse agonist; Pharmacological category in GEF assay [3, 8]: strong inverse agonist
CC(=O)OCCn1c(=NC(=O)C2C(C)(C)C2(C)C)sc2cc(Br)ccc21 [MRI-2654, 2-(6-Bromo-2-((2,2,3,3-tetramethylcyclopropane-1-carbonyl)imino)benzo[d]thiazol-3(2H)-yl)ethyl acetate] | -23 ± 3% | – | 0.079 ± 0.009 nM | 0.76 ± 0.04 nM | inverse agonism; also recorded: inverse agonist | 55% | –
COc1ccc2c(c1)sc(=NC(=O)C1C(C)(C)C1(C)C)n2CCOC(C)=O [MRI-2653, 2-(6-Methoxy-2-((2,2,3,3-tetramethylcyclopropane-1-carbonyl)imino)benzo[d]thiazol-3(2H)-yl)ethyl acetate] | -46 ± 2% | – | 0.094 ± 0.011 nM | 0.5 ± 0.09 nM | inverse agonism | 55% | –
CC(=O)OCCn1c(=NC(=O)C2C(C)(C)C2(C)C)sc2cc(C)ccc21 [MRI-2687, 2-(6-methyl-2-((2,2,3,3-tetramethylcyclopropane-1-carbonyl)imino)benzo[d]thiazol-3(2H)-yl)ethyl acetate] | -35 ± 1% | inverse agonist | 0.1 ± 0.01 nM | 1.23 ± 0.09 nM | inverse agonism | 55% | –
CC(C)CCC[C@@H](C)[C@H]1CC[C@H]2[C@@H]3CC=C4C[C@@H](O)CC[C@]4(C)[C@H]3CC[C@]12C [cholesterol] | – | – | – | – | – | – | Effect on constitutive (basal) activity of the CB2 receptor ([3]; cell membrane preparations and liposomes): increases

— PMC7881127, “Cholesterol as a modulator of cannabinoid receptor CB2 signaling” (Scientific Reports, 2021)
